Experiments:
[1] = target: T1, ADAMTS-7 (Homo sapiens, UniProt Q9UKP4); experiment: LTBP4S-A cleavage assay (SDS-PAGE, densitometry); type: biochemical
T1 construct: the recombinant construct ADAMTS7-T8, which lacks the C-terminal PLAC domain; made in house
T1 sequence (Q9UKP4 237-1631 limits assumed): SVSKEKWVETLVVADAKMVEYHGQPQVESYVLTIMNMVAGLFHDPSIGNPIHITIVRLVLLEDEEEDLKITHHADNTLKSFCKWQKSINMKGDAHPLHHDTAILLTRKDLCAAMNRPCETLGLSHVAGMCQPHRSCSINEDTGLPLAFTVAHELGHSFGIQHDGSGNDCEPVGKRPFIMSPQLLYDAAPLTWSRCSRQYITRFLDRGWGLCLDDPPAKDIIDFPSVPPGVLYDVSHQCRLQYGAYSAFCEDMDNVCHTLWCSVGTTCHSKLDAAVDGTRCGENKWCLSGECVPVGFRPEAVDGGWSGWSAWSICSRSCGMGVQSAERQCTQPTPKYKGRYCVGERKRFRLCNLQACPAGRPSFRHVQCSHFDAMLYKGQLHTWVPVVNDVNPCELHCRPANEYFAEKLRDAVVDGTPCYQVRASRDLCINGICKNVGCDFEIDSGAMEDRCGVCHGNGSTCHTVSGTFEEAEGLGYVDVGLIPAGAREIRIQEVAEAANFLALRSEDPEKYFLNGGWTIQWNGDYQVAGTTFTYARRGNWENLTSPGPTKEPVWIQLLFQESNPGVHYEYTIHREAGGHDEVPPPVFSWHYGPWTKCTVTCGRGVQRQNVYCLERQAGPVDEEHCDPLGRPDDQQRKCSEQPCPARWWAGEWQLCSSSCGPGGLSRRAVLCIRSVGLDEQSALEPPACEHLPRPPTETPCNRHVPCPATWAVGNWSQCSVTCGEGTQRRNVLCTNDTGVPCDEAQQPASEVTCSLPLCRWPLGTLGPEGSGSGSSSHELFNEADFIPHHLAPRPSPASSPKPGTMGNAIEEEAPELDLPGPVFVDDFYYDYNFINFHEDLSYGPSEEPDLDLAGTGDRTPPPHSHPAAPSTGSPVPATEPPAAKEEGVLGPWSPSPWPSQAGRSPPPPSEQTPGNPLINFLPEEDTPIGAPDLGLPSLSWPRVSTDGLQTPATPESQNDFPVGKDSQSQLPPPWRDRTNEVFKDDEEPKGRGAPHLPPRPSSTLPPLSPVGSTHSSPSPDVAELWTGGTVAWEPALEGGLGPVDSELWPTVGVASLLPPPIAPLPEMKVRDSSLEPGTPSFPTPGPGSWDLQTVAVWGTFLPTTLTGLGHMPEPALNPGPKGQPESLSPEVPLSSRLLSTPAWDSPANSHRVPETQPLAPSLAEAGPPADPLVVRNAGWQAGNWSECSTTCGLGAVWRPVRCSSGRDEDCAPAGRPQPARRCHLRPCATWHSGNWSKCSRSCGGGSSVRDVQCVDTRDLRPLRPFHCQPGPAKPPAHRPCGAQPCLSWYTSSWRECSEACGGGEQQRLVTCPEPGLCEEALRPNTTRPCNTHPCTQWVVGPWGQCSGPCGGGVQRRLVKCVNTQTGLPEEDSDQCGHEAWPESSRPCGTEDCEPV
Description: LTBP4S-A cleavage assays were performed as before[8] with small modifications. Here, ADAMTS-7 –T8 (19 nM) was pre-incubated either in the absence or presence of the indicated inhibitors for 2 h at 37 °C before addition of […] (5.6 µM). After 17 h, proteolysis was stopped by addition of Bolt^TM LDS Sample Buffer, 5% β-mercaptoethanol, and heating to 95 °C. Samples were frozen at […] before use. For SDS-PAGE analysis, 12% Bis-Tris Plus Gels (ThermoFisher) were used and stained for 6 h with Imperial protein stain (ThermoFisher). Gels were destained overnight in pure water at room temperature on an orbital shaker and scanned for analysis of LTBP4S-A cleavage bands. To accurately determine cleavage inhibition from each inhibitor, inhibition was quantified by densitometry of the bands corresponding to cleavage products using ImageJ software. The data were plotted using GraphPad Prism 7.0.

[2] = Appearance of solution upon dilution of peptide in assay buffer (solubility); type: physicochemical; settings: 10 mM DMSO stock diluted in assay buffer
Description: The cleavage sites ^193Arg↓Ala^194 and ^195Glu↓Ala^196 were chosen to design the FRET substrate ATS7FP0 (Table 1). This peptide covers residues Ala^188-Ala^198 in LTBP4S and contains a FAM/TAMRA fluorophore/quencher pair. The quencher is covalently linked to the ε amino group of an extra C-terminal lysine residue. Stock solutions were routinely prepared at 10 mM in DMSO and stored at −80 °C. […] This was most likely due to the high content in hydrophobic amino acids of this peptide, which added to the hydrophobicity of the fluorophore/quencher pair. Nevertheless, ATS7FP0 generated fluorescence upon cleavage by ADAMTS-7 (Figure 2(A)). With the aim to improve both solubility and cleavage rate by ADAMTS-7, seven additional peptides were designed using the sequence of ATS7FP0 as a starting point. The N-terminal alanine residue present in ATS7FP0 was removed to generate peptide ATS7FP7 with a reduced aliphatic index (Table 1). […] To assess the effect of a P4′ proline residue on the cleavage rate, peptide ATS7FP7 was modified to generate ATS7FP8. […] Since we also determined that ADAMTS-7 prefers arginine in P1 (Figure 1(D)), we mutated one alanine residue in the parental sequence into arginine with the aim to improve both cleavage rate and hydrophilicity, thus generating peptide ATS7FP3. […]

Q: With `O=C(NCCC[C@@H](NS(=O)(=O)c1ccc(OCc2ccc(F)cc2Cl)cc1)C(=O)NO)c1ccccc1` [EDV33] as the compound, how does the IC50 ([1]; ADAMTS-7 19 nM, 2 h preincubation, LTBP4S-A 5.6 μM, 17 h, read-out: IC50 (LTBP4S-A substrate)) read?
A: 112 ± 14 nM

Q: What about the “increase of ADAMTS-7 inhibition relative to JG23” value ([1]; against LTBP4S-A) of the same compound?
A: 5.1 fold

Q: With “Glu-Ala-Ala-Ala-Arg↓Ala-Glu↓Ala-Ala-Ala-Lys [ATS7FP7]” as the compound, how does the “appearance of solution upon dilution in the assay buffer (solubility)” value [2] read?
A: homogeneous

From PMC8494430, “Development of a fluorogenic ADAMTS-7 substrate” (Journal of Enzyme Inhibition and Medicinal Chemistry, 2021)
